# Test results taken from ChEMBL document CHEMBL2375350, “Synthesis of indolyl-3-acetonitrile derivatives and their inhibitory effects on nitric oxide and PGE2 productions in LPS-induced RAW 264.7 cells” (Bioorg Med Chem Lett, 2013).
# Legend:
# RAW264.7 [1] = assay: Antiinflammatory activity in mouse RAW264.7 cells assessed as inhibition of LPS-induced nitrite production after 24 hrs by Griess assay; type: functional, cell-based; conditions: RAW264.7, 24 h
# RAW264.7 [2] = assay: Antiinflammatory activity in mouse RAW264.7 cells assessed as inhibition of LPS-induced PGE2 production incubated for 1 hr prior to LPS challenge measured after 24 hrs by EIA; type: functional, cell-based
# RAW264.7 [3] = assay: Cytotoxicity against mouse RAW264.7 cells assessed as cell viability after 24 hrs by MTT assay; type: cell-based; conditions: RAW264.7, 24 h
SMILES,IC50 (RAW264.7 [1]) [µM],IC50 (RAW264.7 [2]) [µM],IC50 (RAW264.7 [3]) [µM]
N#CCc1c[nH]c2ccc(OCc3ccccc3)cc12,19.4,> 25,82.7
COc1ccc2c(CC#N)c[nH]c2c1,> 100,83.6,161
COC(=O)n1cc(CC#N)c2ccc(O)cc21,> 100,15.2,339
COC(=O)Cn1cc(CC#N)c2ccc(O)cc21,> 100,> 100,> 400
Cn1cc(CC#N)c2cccc(O)c21,39.8,6.22,> 400
CC(=O)n1cc(CC#N)c2ccc(O)cc21,82.1,41.3,> 400
Cn1cc(CC#N)c2ccc(O)cc21,80.1,11.7,372
Cn1cc(CC#N)c2c(O)cccc21,57.1,16,> 400
Cn1cc(CC#N)c2cc(O)ccc21,> 100,57.7,325
N#CCc1c[nH]c2c(OCc3ccccc3)cccc12,48.7,73.1,> 400
N#CCc1c[nH]c2cccc(OCc3ccccc3)c12,45.6,32.4,105
N#CCc1c[nH]c2cc(OCc3ccccc3)ccc12,20.4,> 25,53.2
COc1cccc2c(CC#N)c[nH]c12,> 100,> 100,> 400
COc1ccc2[nH]cc(CC#N)c2c1,> 100,> 100,99.6
COc1cccc2[nH]cc(CC#N)c12 [ARVELEXIN],83.6,13.9,207
